# Results from US20240368135A1 (VERTEX PHARMACEUTICALS INCORPORATED, priority 2021, published 2024).
# Biological target: human NaV 1.8 (Homo sapiens, UniProt Q9Y5Y9)
# Test: E-VIPR assay detecting and measuring NaV inhibition properties
# Format: cell-based
# Details: HEK cells expressing truncated human NaV 1.8; in the presence of human serum (compound numbers followed by *); read-out: IC50 in the E-VIPR Assay, performed in the presence of human serum
# Outline: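 Membrane potential was followed by coumarin/oxonol FRET during electrical field stimulation of matrigel-seeded HEK cells carrying truncated human NaV1.8 plus KIR2.1. Dosing used 11 points, 3-fold steps, top 300 nM final, 0.625% DMSO, with or without 25% human serum.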
# human NaV 1.8, sequence (Q9Y5Y9 126-399 limits assumed): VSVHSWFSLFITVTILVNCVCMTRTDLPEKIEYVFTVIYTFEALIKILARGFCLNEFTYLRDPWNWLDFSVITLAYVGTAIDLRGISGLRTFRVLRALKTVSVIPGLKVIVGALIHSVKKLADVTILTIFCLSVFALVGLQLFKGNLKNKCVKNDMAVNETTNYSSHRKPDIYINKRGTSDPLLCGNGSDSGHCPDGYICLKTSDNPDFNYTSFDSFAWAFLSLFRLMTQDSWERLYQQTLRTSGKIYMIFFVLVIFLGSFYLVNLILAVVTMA
# human NaV 1.8, sequence (Q9Y5Y9 660-890 limits assumed): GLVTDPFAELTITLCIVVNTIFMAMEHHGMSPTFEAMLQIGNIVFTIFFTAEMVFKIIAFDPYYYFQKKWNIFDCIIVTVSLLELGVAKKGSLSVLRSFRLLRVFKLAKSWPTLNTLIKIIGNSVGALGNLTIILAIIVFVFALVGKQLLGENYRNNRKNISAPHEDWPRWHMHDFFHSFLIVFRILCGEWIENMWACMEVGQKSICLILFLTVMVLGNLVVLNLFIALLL
# human NaV 1.8, sequence (Q9Y5Y9 1148-1722 limits assumed): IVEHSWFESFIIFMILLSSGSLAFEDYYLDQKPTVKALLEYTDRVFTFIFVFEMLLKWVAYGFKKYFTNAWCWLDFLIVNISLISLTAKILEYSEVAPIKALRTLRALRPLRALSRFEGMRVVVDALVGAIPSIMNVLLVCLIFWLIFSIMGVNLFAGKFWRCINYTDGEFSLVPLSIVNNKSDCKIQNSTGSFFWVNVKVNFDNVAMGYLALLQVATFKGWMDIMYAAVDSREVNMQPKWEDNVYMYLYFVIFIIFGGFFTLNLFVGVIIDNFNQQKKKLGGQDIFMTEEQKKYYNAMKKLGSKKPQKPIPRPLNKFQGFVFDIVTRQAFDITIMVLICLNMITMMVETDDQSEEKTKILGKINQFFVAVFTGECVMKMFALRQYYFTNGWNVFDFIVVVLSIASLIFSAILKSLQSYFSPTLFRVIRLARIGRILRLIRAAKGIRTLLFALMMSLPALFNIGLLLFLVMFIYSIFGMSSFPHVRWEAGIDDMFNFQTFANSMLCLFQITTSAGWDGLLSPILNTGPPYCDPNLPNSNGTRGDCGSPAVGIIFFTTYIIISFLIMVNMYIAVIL
row,IC50 [nM],SMILES
1,≥ 1000,"C[C@@H]1[C@H](c2ccc(F)c(F)c2OC(F)F)[C@@H](C(=O)Nc2ccnc(C(C)(C)O)c2)O[C@]1(C)C(F)(F)F (single isomer, unassigned) [Compound 83]"
2,≥ 1000,"C[C@@H]1[C@H](c2ccc(F)c(F)c2OC(F)F)[C@@H](C(=O)Nc2ccnc(S(C)(=O)=O)c2)O[C@]1(C)C(F)(F)F (single isomer, unassigned) [Compound 86]"
3,≥ 1000,"C[C@@H]1[C@H](c2ccc(F)c(F)c2OC(F)F)[C@@H](C(=O)Nc2cc(S(C)(=O)=O)c[n+]([O-])c2)O[C@]1(C)C(F)(F)F (single isomer, unassigned) [Compound 87]"
4,100 to 1000,"C[C@H]1[C@@H](c2ccc(F)c(F)c2OC(F)F)[C@H](C(=O)Nc2cc(S(C)(=O)=O)c[n+]([O-])c2)O[C@@]1(C)C(F)(F)F (single isomer, unassigned) [Compound 88]"
5,≥ 1000,"C[C@@H]1[C@H](c2ccc(F)c(F)c2OC(F)F)[C@@H](C(=O)Nc2ccc(C(N)=O)nc2)O[C@]1(C)C(F)(F)F (single isomer, unassigned) [Compound 93]"
6,≥ 1000,"COc1c([C@@H]2[C@@H](C(=O)Nc3ccnc(C(O)CO)c3)O[C@](C)(C(F)(F)F)[C@@H]2C)ccc(F)c1C (single isomer, unassigned) [Compound 136]"
7,≥ 1000,"COc1c([C@@H]2[C@@H](C(=O)Nc3cc(C(O)CO)ncc3F)O[C@](C)(C(F)(F)F)[C@@H]2C)ccc(F)c1C (single isomer, unassigned) [Compound 139]"
8,10 to 100,"COc1c([C@H]2[C@H](C(=O)Nc3cc(C(O)CO)ncc3F)O[C@@](C)(C(F)(F)F)[C@H]2C)ccc(F)c1C (single isomer, unassigned) [Compound 140]"
9,≥ 1000,"COc1c(C2C(C(=O)Nc3ccnc(C(O)C(C)O)c3)OC(C)(C(F)(F)F)C2C)ccc(F)c1C (single isomer, unassigned) [Compound 142]"
10,≥ 1000,"COc1c(C2C(C(=O)Nc3ccnc(C(O)C(C)O)c3)OC(C)(C(F)(F)F)C2C)ccc(F)c1C (single isomer, unassigned) [Compound 143]"
11,≥ 1000,"COc1c(C2C(C(=O)Nc3ccnc(C(O)C(C)O)c3)OC(C)(C(F)(F)F)C2C)ccc(F)c1C (single isomer, unassigned) [Compound 146]"

# Same assay, conditions: HEK cells expressing truncated human NaV 1.8; no human serum; read-out: IC50 in the E-VIPR Assay
row,IC50 [nM],SMILES
1,10 to 100,"C[C@H]1[C@@H](c2ccc(F)c(F)c2OC(F)F)[C@H](C(=O)Nc2cc(S(C)(=O)=O)ccn2)O[C@@]1(C)C(F)(F)F (single isomer, unassigned) [Compound 72]"
2,≥ 1000,"Cc1nn(CCO)cc1NC(=O)[C@H]1O[C@](C)(C(F)(F)F)[C@H](C)[C@@H]1c1ccc(F)c(F)c1OC(F)F (single isomer, unassigned) [Compound 75]"
3,10 to 100,"Cc1nn(CCO)cc1NC(=O)[C@@H]1O[C@@](C)(C(F)(F)F)[C@@H](C)[C@H]1c1ccc(F)c(F)c1OC(F)F (single isomer, unassigned) [Compound 76]"
4,≥ 1000,"C[C@@H]1[C@H](c2ccc(F)c(F)c2OC(F)F)[C@@H](C(=O)Nc2ccn(C)c(=O)c2)O[C@]1(C)C(F)(F)F (single isomer, unassigned) [Compound 77]"
5,< 10,"C[C@H]1[C@@H](c2ccc(F)c(F)c2OC(F)F)[C@H](C(=O)Nc2ccn(C)c(=O)c2)O[C@@]1(C)C(F)(F)F (single isomer, unassigned) [Compound 78]"
6,100 to 1000,"C[C@@H]1[C@H](c2ccc(F)c(F)c2OC(F)F)[C@@H](C(=O)Nc2ccn3nnnc3c2)O[C@]1(C)C(F)(F)F (single isomer, unassigned) [Compound 79]"
7,< 10,"C[C@H]1[C@@H](c2ccc(F)c(F)c2OC(F)F)[C@H](C(=O)Nc2ccn3nnnc3c2)O[C@@]1(C)C(F)(F)F (single isomer, unassigned) [Compound 80]"
8,100 to 1000,"C[C@@H]1[C@H](c2ccc(F)c(F)c2OC(F)F)[C@@H](C(=O)Nc2ccnc(C(O)CO)c2)O[C@]1(C)C(F)(F)F (single isomer, unassigned) [Compound 81]"
9,< 10,"C[C@H]1[C@@H](c2ccc(F)c(F)c2OC(F)F)[C@H](C(=O)Nc2ccnc(C(O)CO)c2)O[C@@]1(C)C(F)(F)F (single isomer, unassigned) [Compound 82]"
10,< 10,"C[C@H]1[C@@H](c2ccc(F)c(F)c2OC(F)F)[C@H](C(=O)Nc2ccnc(C(C)(C)O)c2)O[C@@]1(C)C(F)(F)F (single isomer, unassigned) [Compound 84]"
11,< 10,"C[C@H]1[C@@H](c2ccc(F)c(F)c2OC(F)F)[C@H](C(=O)Nc2ccnc(S(C)(=O)=O)c2)O[C@@]1(C)C(F)(F)F (single isomer, unassigned) [Compound 85]"
12,100 to 1000,"CCS(=O)(=O)c1cc(NC(=O)[C@H]2O[C@](C)(C(F)(F)F)[C@H](C)[C@@H]2c2ccc(F)c(F)c2OC(F)F)ccn1 (single isomer, unassigned) [Compound 89]"
13,< 10,"CCS(=O)(=O)c1cc(NC(=O)[C@@H]2O[C@@](C)(C(F)(F)F)[C@@H](C)[C@H]2c2ccc(F)c(F)c2OC(F)F)ccn1 (single isomer, unassigned) [Compound 90]"
14,≥ 1000,"C[C@@H]1[C@H](c2ccc(F)c(F)c2OC(F)F)[C@@H](C(=O)Nc2ccnc(CO)c2)O[C@]1(C)C(F)(F)F (single isomer, unassigned) [Compound 91]"
15,< 10,"C[C@H]1[C@@H](c2ccc(F)c(F)c2OC(F)F)[C@H](C(=O)Nc2ccnc(CO)c2)O[C@@]1(C)C(F)(F)F (single isomer, unassigned) [Compound 92]"
16,< 10,"C[C@H]1[C@@H](c2ccc(F)c(F)c2OC(F)F)[C@H](C(=O)Nc2ccc(C(N)=O)nc2)O[C@@]1(C)C(F)(F)F (single isomer, unassigned) [Compound 94]"

row,IC50 [nM],SMILES
1,< 10,"C[C@H]1[C@@H](c2ccc(F)c(F)c2OC(F)F)[C@H](C(=O)Nc2cncc(S(C)(=O)=O)c2)O[C@@]1(C)C(F)(F)F (single isomer, unassigned) [Compound 96]"
2,< 10,"CCOc1c([C@H]2[C@H](C(=O)Nc3ccnc(C(O)CO)c3)O[C@@](C)(C(F)(F)F)[C@H]2C)ccc(F)c1F (single isomer, unassigned) [Compound 104, rel-(2R*,3S*,4S*,5R*)-N-(2-(1,2-dihydroxyethyl)pyridin-4-yl)-3-(2-ethoxy-3,4-difluorophenyl)-4,5-dimethyl-5-(trifluoromethyl)tetrahydrofuran-2-carboxamide]"
3,100 to 1000,"CCOc1c(C2C(C(=O)Nc3ccnc(S(C)(=N)=O)c3)OC(C)(C(F)(F)F)C2C)ccc(F)c1F (single isomer, unassigned) [Compound 109, 3-(2-ethoxy-3,4-difluoro-phenyl)-4,5-dimethyl-N-[2-(methylsulfonimidoyl)-4-pyridyl]-5-(trifluoromethyl)tetrahydrofuran-2-carboxamide]"
4,< 10,"CCOc1c(C2C(C(=O)Nc3ccnc(S(C)(=N)=O)c3)OC(C)(C(F)(F)F)C2C)ccc(F)c1F (single isomer, unassigned) [Compound 110, 3-(2-ethoxy-3,4-difluoro-phenyl)-4,5-dimethyl-N-[2-(methylsulfonimidoyl)-4-pyridyl]-5-(trifluoromethyl)tetrahydrofuran-2-carboxamide]"
5,< 10,"CCOc1c([C@H]2[C@H](C(=O)Nc3ccnc(S(C)(=N)=O)c3)O[C@@](C)(C(F)(F)F)[C@H]2C)ccc(F)c1F (single isomer, unassigned) [Compound 111]"
6,100 to 1000,"CC(C)Oc1c([C@@H]2[C@@H](C(=O)Nc3ccnc(S(C)(=N)=O)c3)O[C@](C)(C(F)(F)F)[C@@H]2C)ccc(F)c1F (single isomer, unassigned) [Compound 117]"
7,≥ 1000,"CC(C)Oc1c([C@@H]2[C@@H](C(=O)Nc3ccnc(S(C)(=N)=O)c3)O[C@](C)(C(F)(F)F)[C@@H]2C)ccc(F)c1F (single isomer, unassigned) [Compound 118]"
8,< 10,"CC(C)Oc1c([C@H]2[C@H](C(=O)Nc3ccnc(S(C)(=N)=O)c3)O[C@@](C)(C(F)(F)F)[C@H]2C)ccc(F)c1F (single isomer, unassigned) [Compound 119]"
9,100 to 1000,"CCOc1c([C@@H]2[C@@H](C(=O)Nc3ccnc(S(C)(=N)=O)c3)O[C@](C)(C(F)(F)F)[C@@H]2C)ccc(F)c1C (single isomer, unassigned) [Compound 126]"
10,< 10,"CCOc1c([C@H]2[C@H](C(=O)Nc3ccnc(S(C)(=N)=O)c3)O[C@@](C)(C(F)(F)F)[C@H]2C)ccc(F)c1C (single isomer, unassigned) [Compound 128]"
11,< 10,"CCOc1c([C@H]2[C@H](C(=O)Nc3ccnc(S(C)(=O)=NC)c3)O[C@@](C)(C(F)(F)F)[C@H]2C)ccc(F)c1C (single isomer, unassigned) [Compound 130]"
12,100 to 1000,"COc1c(C2C(C(=O)Nc3ccn4nnnc4c3)OC(C)(C(F)(F)F)C2C)ccc(F)c1C (single isomer, unassigned) [Compound 133, 3-(4-fluoro-2-methoxy-3-methyl-phenyl)-4,5-dimethyl-N-(tetrazolo[1,5-a]pyridin-7-yl)-5-(trifluoromethyl)tetrahydrofuran-2-carboxamide]"
13,< 10,"COc1c(C2C(C(=O)Nc3ccn4nnnc4c3)OC(C)(C(F)(F)F)C2C)ccc(F)c1C (single isomer, unassigned) [Compound 134, 3-(4-fluoro-2-methoxy-3-methyl-phenyl)-4,5-dimethyl-N-(tetrazolo[1,5-a]pyridin-7-yl)-5-(trifluoromethyl)tetrahydrofuran-2-carboxamide]"
14,< 10,"COc1c([C@H]2[C@H](C(=O)Nc3ccnc(C(O)CO)c3)O[C@@](C)(C(F)(F)F)[C@H]2C)ccc(F)c1C (single isomer, unassigned) [Compound 135]"
15,< 10,"COc1c(C2C(C(=O)Nc3ccnc(C(O)C(C)O)c3)OC(C)(C(F)(F)F)C2C)ccc(F)c1C (single isomer, unassigned) [Compound 144]"
